Changes are numbered by the printed parent chain. Where two headings read alike, the source gives them in different places.
Experiments:
[1] = target: T1, human alpha1C adrenergic receptor (Homo sapiens, UniProt P35348, C347R); test: Selective binding assay, competition with [125I]-HEAT on COS-7 membranes, α1C; settings: Table I, 100 pM [125I]-HEAT
T1 construct: expressed in transfected cells; host or cells: COS-7 cells (pcDNAI-neo, electroporation), membranes
T1 sequence (P35348 1-466 C347R): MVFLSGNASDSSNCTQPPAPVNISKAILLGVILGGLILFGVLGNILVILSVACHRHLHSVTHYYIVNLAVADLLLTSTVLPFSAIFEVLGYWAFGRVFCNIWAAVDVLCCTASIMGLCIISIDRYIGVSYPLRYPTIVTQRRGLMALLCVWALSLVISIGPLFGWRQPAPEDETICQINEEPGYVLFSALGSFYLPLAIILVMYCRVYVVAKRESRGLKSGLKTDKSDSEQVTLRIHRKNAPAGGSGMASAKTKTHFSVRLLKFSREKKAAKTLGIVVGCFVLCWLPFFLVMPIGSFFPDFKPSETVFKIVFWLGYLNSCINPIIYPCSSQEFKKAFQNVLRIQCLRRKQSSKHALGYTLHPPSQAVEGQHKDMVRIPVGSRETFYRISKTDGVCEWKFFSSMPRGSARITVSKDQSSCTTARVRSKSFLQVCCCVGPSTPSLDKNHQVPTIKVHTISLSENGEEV
Experimental: The resulting plasmid was transfected into COS-7 cells by electroporation. […] Binding reactions (total volume=200 ul) contained 50 mM Tris-HCl pH. […] Reactions were incubated at room temperature for one hour with shaking. Reactions were filtered onto Whatman GF/C glass fiber filters with a Brandel cell harvester. Filters were washed three times with ice cold buffer and bound radioactivity was determined.
(§1) These competition binding reactions (total volume=200 ul) contain 50 mM Tris-HCl pH. […] Reactions are incubated at room temperature for one hour with shaking. Reactions were filtered onto Whatman GF/C glass fiber filters with a Brandel cell harvester. Filters were washed three times with ice cold buffer and bound radioactivity was determined. Binding data were analyzed and IC50s determined by an iterative curve fitting program.
as §1

[2] = target: human/rat alpha1B adrenergic receptor; test: Selective binding assay, competition with [125I]-HEAT on COS-7 membranes, α1B; parameters: species or system human/rat hybrid
Experimental: The partial human alpha1B adrenergic receptor cDNA was joined to the 3' end of the rat alpha1B adrenergic receptor cDNA at their common BssHII restriction endonuclease site. ID:25:
The complete coding region for the human/rat alpha1B adrenergic receptor was subcloned into the eukaryotic expression vector pcDNAI-neo (Invitrogen). The resulting plasmid was transfected into COS-7 cells by electroporation. […] Binding reactions (total volume=200 ul) contained 50 mM Tris-HCl pH. […] Reactions are incubated at room temperature for one hour with shaking. Reactions were filtered onto Whatman GF/C glass fiber filters with a Brandel cell harvester. Filters were washed three times with ice cold buffer and bound radioactivity was determined.
as §1

[3] = target: T2, human alpha-1c adrenergic receptor, allele 2 (LCR) (Homo sapiens, UniProt P35348); test: biochemical
T2 sequence (P35348 1-466): T1 sequence (P35348 1-466 C347R) with R347C
Text: (§2) To investigate the pharmacological profiles of the two allelic forms of the human alpha-1c adrenergic receptor we ligated the genomic exon 2 fragment of allele 2 to a cDNA clone of allele 1 at a common PvuII restriction site. The two allelic forms were transiently expressed in COS-7 cells using pcDNAI/NEO (Invitrogen) expression vector.

[4] = target: T3, human alpha-1c adrenergic receptor, allele 1 (LRR) (Homo sapiens, UniProt P35348, C347R); test: biochemical
T3 sequence (P35348 1-466 C347R): T1 sequence (P35348 1-466 C347R)
Text: as §2

[5] = target: human alpha1A adrenergic receptor; test: Selective binding assay, competition with [125I]-HEAT on COS-7 membranes, α1A; settings: Table I, 100 pM [125I]-HEAT
Experimental: The resulting plasmid was transfected into COS-7 cells by electroporation.
Binding reactions (total volume=200 ul) contained 50 mM Tris-HCl pH. […] Reactions are incubated at room temperature for one hour with shaking. Reactions were filtered onto Whatman GF/C glass fiber filters with a Brandel cell harvester. Filters were washed three times with ice cold buffer and bound radioactivity was determined.
as §1

[6] = Table I, 100 pM [125I]-HEAT, COS-7 membranes

Structure (SMILES) | IC50 [1] [nM] | IC50 [2, 6] [nM] | IC50 [5] [nM] | other results
COc1ccccc1N1CCN(CCCNc2c(C)c(=O)n(C)c(=O)n2C)CC1 [5-methyl urapidil] | 3.5 | 270 | 42 | IC50 [3]: 4.3 nM; IC50 [4]: 3.1 nM
COC(=O)C1=C(C)NC(C)=C(C(=O)OCCCN2CCC(c3ccccc3)(c3ccccc3)CC2)[C@H]1c1cccc([N+](=O)[O-])c1 [S(+) niguldipine] | – | – | – | IC50 [2]: 670 nM
COc1cccc(OC)c1OCCNCC1COc2ccccc2O1 (centres unmarked) [WB4101] | 1 | 16 | 1 | IC50 ([3]; read-out: IC50 LCR, Table II, allele 2 (Cys at amino acid 347), COS-7, 125I-HEAT): 1 nM; IC50 [4]: 0.9 nM
CC(COc1ccccc1)N(CCCl)Cc1ccccc1 (centres unmarked) [phenoxybenzamine] | – | 4.3 | 6.1 | –
Cc1ccc(N(CC2=NCCN2)c2cccc(O)c2)cc1 [phentolamine] | – | 650 | – | –
COc1cc2nc(N3CCN(C(=O)c4ccco4)CC3)nc(N)c2cc1OC [prazosin] | – | – | – | IC50 [2]: 2.4 nM

Now from value to molecule, other results behind:

IC50 [1] [nM] | IC50 [2, 6] [nM] | IC50 [5] [nM] | Structure (SMILES) | other results
1.5 | 68 | 2.5 | COc1cccc(OC)c1OCCNCC1CSc2ccccc2O1 (centres unmarked) [benoxathian] | –
– | 2 | – | COc1cc2nc(N3CCN(C(=O)C4COc5ccccc5O4)CC3)nc(N)c2cc1OC (centres unmarked) [doxazosin] | –
– | 5 | – | COc1cc2nc(N3CCN(C(=O)C4CCCO4)CC3)nc(N)c2cc1OC (centres unmarked) [terazosin] | –

— patent publication US5760054A, “Alpha IC adrenergic receptor antagonists” (priority 1996, dated 1998)
